Measurements reported in US6436997B1, “Endogenous nitric oxide synthesis under conditions of low oxygen tension” (NitroMed, Inc., priority 1998, dated 2002).

What was measured:
[1] = tested on: rabbit corpus cavernosum tissue; assay: Relaxation of phenylephrine-contracted corpus cavernosum tissue strips in organ chambers; assay type: cell-based; settings: for effect on N-hydroxy-L-arginine induced relaxation / effect on hydroxylamine induced relaxation: 20% O2; for effect on hydroxylamine induced relaxation: increasing hydroxylamine
Protocol: (§1) Rabbits were euthanized with an overdose of intravenous pentobarbital (60 mg/kg) and immediately exsanguinated. The entire penis was then removed and the corpus cavernosum tissue dissected free from the surrounding tunica albuginea and cut into strgips (3×3×7 mm). Corpus cavernosum tissues were maintained at 4-6° C. in M-400 solution (composition per 100 ml: mannitol, 4.19 g; KH2PO4, 0.205 g; K2HPO4.3H2O, 0.97 g; KCl, 0.112 g; NaHCO3, 0.084 g) until used. Corpus cavernosum tissues were typically used between 2 and 16 hrs from extraction.
Corpus cavernosum tissue was prepared as described in Example 1. For experimentation to measure relaxation of the tissue under various conditions, the corpus cavernosum tissues were then suspended in 10 ml organ chambers and bathed in a physiological salt solution, maintained at 37° C. and aerated with 5% CO2/95% air, pH 7.4. Each corpus cavernosum tissue strip was incrementally stretched to optimal isometric tension as determined by the maximal contractile response to 1 μM phenylephrine. After several exchanges of fresh physiological solution, the media was bubbled with gas mixtures containing 5% CO2, the indicated amount of oxygen (between 0% and 20%) and the remaining percentage was N2, for thirty minutes. Corpus cavernosum tissues were then contracted with a submaximal concentration of phenylephrine, and the contraction was allowed to reach a steady state level. Once a steady state of muscle tension was reached, the tissue was exposed to various concentrations of test compounds, and the relaxation responses were recorded. Relaxation responses were expressed as a percentage of total relaxation induced by a supramaximal addition of papaverine (total loss of tone) at the end of the experiment. The data in FIGS. 3-6 are expressed as mean±standard mean error

[2] = tested on: rabbit corpus cavernosum tissue; assay: cGMP production (basal and acetylcholine stimulated) by corpus cavernosum tissue strips, ELISA; assay type: cell-based; settings: for basal cGMP production: normoxic (20% O2), vs vehicle control, FIG. 1; for cGMP concentration in acetylcholine stimulated tissue compared to basal values (ACh alone): 300 μM test drug + 30 μM ACh, under normoxia (20% O2) and hypoxia (0% O2), FIGS. 2A/2B
Protocol: as §1
Measurement of cyclic GMP in corpus cavernosal tissues was carried out as follows. Corpus cavernosal tissue strips were immersed in a 10 ml organ chamber containing physiological salt solution, maintained at 37° C. and aerated with 5% CO2/95% air, pH 7.4. Each strip was incrementally stretched to optimal isometric tension, as determined by maximal contractile responses to 1 μM phenylephrine ((R)-3-hydroxy-α-[(methylamino)methyl]-benzenemethanol hydrochloride). The physiological salt solution was then replaced with one bubbled with either 20% oxygen or 0% oxygen and the tissues were then given 0.5 μM phenylephrine, 30 μM Zaprinast and 100 μM IBMX (3-isobutyl-1-methylxanthine, […]) and incubated for 15 minutes; after which time each tissue was incubated with the test drug (or control drug) at various concentrations or with vehicle (the buffer in which the drugs are delivered). Tissues were incubated for another 5 minutes then immediately frozen in liquid nitrogen and stored at −80° C. until extraction for cyclic nucleotide assay. Tissues were extracted by homogenization in 6% trichloroacetic acid followed by ether (H2O-saturated) extraction and lyophilization. cGMP levels were determined by ELISA using a kit from Cayman Chemical Co. (Ann Arbor, Mich.).
Protein concentration in the corpus cavernosum tissue was determined using the Bio-Rad Protein Assay Kit microtiter plate assay procedure (Bio-Rad, Hercules, Calif.) with bovine serum albumin as the standard.

[3] = tested on: left hindlimb of autoperfused non-diabetic or diabetic rats; assay: Vasoactive response (hindlimb perfusion pressure) of anesthetized autoperfused rats; assay type: in vivo, rat; settings: bolus infusion 0.1-10 mg/kg, pressure elevated by norepinephrine 2 μg/min/kg, FIGS. 12A/12B
Protocol: The left hindlimb of the anesthetized rats were perfused through the femoral artery at a constant rate of 3.3 ml/min/kg with blood from the carotid artery by means of a peristaltic pump. The vasoactive response induced by the bolus infusion of increasing concentrations of L-arginine or N-hydroxy-L-arginine into the left hindlimb of autoperfused non-diabetic or diabetic rats was determined by measuring the change in the perfusion pressure, which was previously elevated by a norepinephrine constant infusion (2 μg/min/kg).

rat aortic segments = assay: Relaxation of norepinephrine-contracted rat aortic segments from non-diabetic and diabetic rats; assay type: cell-based; settings: for effect on acetylcholine induced relaxation of aorta segments / effect on acetylcholine induced relaxation of aortic rings: 10 μM test drug, 10 nM-10 μM ACh, normoxia; for effect on acetylcholine induced relaxation of aorta segments: diabetic rats, FIG. 10B; for effect on acetylcholine induced relaxation of aortic rings: non-diabetic rats, FIG. 10A
Protocol: Diabetes was induced in rats by the administration of a single injection of steptozotocin (60 mg/kg; i.p). Diabetic rats remained untreated for a total of 8 weeks. […] Rats were anesthetized with diethyl ether and exsanguinated. The thoracic aorta was then removed and the tissue dissected free from the surrounding periadventitial fat and connective tissue, taking precautions to avoid touching the luminal surface. The tissue was cut into 8 segments, each approximately 3-4 mm in length. Rat aortic segments were maintained at 4-6° C. Krebs-bicarbonate buffer (composition per millimolar: NaCl, 120; KCl, 5.6; MgCl2, 1.2; NaH2PO4, 1.2; dextrose, 10; NaHCO3, 25; CaCl2 2.5; pH 7.4) until used. Aortic segments were typically used between 2 and 16 hrs from extraction. […] Each aortic tissue strip was submitted to 1.5 g of resting tension. […] The aortic segments were then contracted with submaximal concentration of norepinephrine and the contraction as allowed to reach a steady state level. Once a steady state of muscle tension was reached, the tissue was exposed to various concentrations of test compounds and the relaxation responses were recorded. Relaxation responses were expressed as a percentage of total relaxation induced by a supramaximal addition of papaverine (total loss of tone) at the end of the experiment. In FIGS. 7-12, the data are expressed as mean±standard mean error.

[4] = estimated; cited from earlier work
[5] = 0.1 mM L-NNA or 0.02 mM ODQ, increasing N-hydroxy-L-arginine, FIG. 4A
[6] = 0.1 mM L-NNA or 0.02 mM ODQ, FIG. 4B

## N=C(NCCC[C@H](N)C(=O)O)N[N+](=O)[O-] [L-NNA, N^G-nitro-L-arginine]
[1]; 0.1 mM L-NNA added together with 0.1 mM miconazole, FIG. 3
  effect on N-hydroxy-L-arginine induced relaxation: does decrease the effectiveness of N-hydroxy-L-arginine to relax the tissue
[1]; [5]
  effect on N-hydroxy-L-arginine induced relaxation: significantly decreased the measured relaxation
[1]; [6]
  effect on hydroxylamine induced relaxation: had no effect

## O=c1onc2cnc3ccccc3n12 [ODQ, 1H-[1,2,4]oxadiazolo[4,3,a]quinoxalin-1-one]
[1]; [5]
  effect on N-hydroxy-L-arginine induced relaxation: significantly decreased the measured relaxation
[1]; [6]
  effect on hydroxylamine induced relaxation: significantly decreased the relaxation

## NC(=NCCC[C@H](N)C(=O)O)NO [N-hydroxy-L-arginine, N^G-hydroxy-L-arginine]
[1]; all oxygen concentrations (0%, 1%, 2%, 5%, 20%), FIG. 6
  tissue relaxation at 1 mM: significant relaxation of the tissue
[2]; 30 μM test drug
  basal cGMP production: stimulated cGMP production approximately equally
[2]
  cGMP concentration in acetylcholine stimulated tissue compared to basal values (ACh alone): statistically significant increase in the concentration of cGMP
[2]; 300 μM test drug
  basal cGMP production: effective to stimulate a higher concentration of cGMP production
[3]
  change in hindlimb perfusion pressure, non-diabetic versus diabetic rats: no difference in the perfusion pressure
Rat aortic segments; 1 μM, 95% O2, FIG. 8
  induced relaxation, diabetic versus non-diabetic aortic segments: more effective in inducing the relaxation of aortic segments obtained from diabetic rats
Rat aortic segments
  effect on acetylcholine induced relaxation of aorta segments: increased the relaxation
  effect on acetylcholine induced relaxation of aortic rings: do not effect the relaxation of aortic rings
Rat aortic segments; 95% O2, 100 nM-100 μM, non-diabetic and diabetic rats, FIGS. 7A/7B
  induced relaxation of aortic segments compared with L-arginine: more effective in inducing relaxation in both non-diabetic and diabetic rats

## Clc1ccc(COC(Cn2ccnc2)c2ccc(Cl)cc2Cl)c(Cl)c1 (stereo not drawn) [miconazole]
[1]; 0.1 mM miconazole, increasing N-hydroxy-L-arginine 1-1000 μM, FIG. 3
  effect on N-hydroxy-L-arginine induced relaxation: does not significantly effect the relaxation of the tissues

## NO [hydroxylamine]
[1]; 20% O2, 1 nM to 1000 μM, FIG. 4B
  relaxation of corpus cavernosum tissue by the substance itself: induces the relaxation of the tissue

## N=C(N)NCCC[C@H](N)C(=O)O [L-arginine]
[1]; oxygen concentrations of 0%, 1%, 2% and 5% (data not shown)
  tissue relaxation at 1 mM: no measurable effect on tissue relaxation
[2]
  cGMP concentration in acetylcholine stimulated tissue compared to basal values (ACh alone): not effective to statistically increase the concentration of cGMP
[2]; 300 μM test drug
  basal cGMP production: stimulated cGMP production approximately equally
[3]
  change in hindlimb perfusion pressure, non-diabetic versus diabetic rats: the pressure change was greater for the non-diabetic rats compared to diabetic rats
Rat aortic segments
  effect on acetylcholine induced relaxation of aorta segments: resulted in a decreased relaxation
  effect on acetylcholine induced relaxation of aortic rings: do not effect the relaxation of aortic rings

## [N]=O [nitric oxide]
[4]
  half-life in biological tissues: less than one second

## COC(=O)[C@@H](N)CCCNC(=N)N[N+](=O)[O-] [L-NAME, N^G-nitro-L-arginine methyl ester]
Rat aortic segments; 10 μM inhibitor, normoxic, non-diabetic and diabetic rats, FIGS. 9A/9B
  effect on N-hydroxy-L-arginine induced relaxation of aorta segments: significantly decreased the measured relaxation
